{
  "source": "patent US12336987B2",
  "about": "“Quinoline amides and methods of using same” (YALE UNIVERSITY, priority 2015, dated 2025)",
  "key": {"IAPP": {"target": "T1, IAPP (Homo sapiens, UniProt P10997)", "T1 construct": "purchased Genscript; Elim Biopharmaceuticals", "T1 sequence (P10997 34-70 limits assumed)": "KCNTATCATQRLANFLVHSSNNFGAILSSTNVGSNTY", "experiment": "Kinetic assay of IAPP fibre formation (ThT fluorescence), in solution or catalysed by LUVs", "format": "biochemical", "details": "10 μM IAPP, 630 μM LUVs, IAPP:small molecule 1:1", "experimental": "Unless otherwise stated, LUVs used in this work were prepared from a 1:1 mixture of DOPG/DOPC. The lyophilized mixture was hydrated in 100 mM KCl, 50 mM sodium phosphate, and pH 7.4 for 20 minutes. A 20 mg/mL solution of lipid in buffer was passed 21 times through a polycarbonate membrane (pore diameter=100 nm).\nAmyloid reactions were conducted in buffer containing liposome (630 μM lipid) and 20 μM ThT in a black 96-well plate. This was followed by addition of small molecule dissolved in DMSO (final DMSO concentration=0.5%, v/v). […] The final volume in each well was 200 μL. Kinetics of fibrillation was monitored by ThT fluorescence (Ex 450 nm and Em 485 nm) using a FluoDia T70 fluorescence plate reader (Photon Technology International, Edison, NJ, USA). […] Each kinetic trace was fit to a sigmoidal form:"}, "IAPP20-29": {"target": "T2, IAPP20-29 (Homo sapiens, UniProt P10997)", "T2 construct": "the 10-residue sub-peptide, IAPP20-29", "experiment": "Amyloid assembly kinetics of the 10-residue peptide IAPP20-29", "format": "biochemical", "details": "200 μM IAPP20-29", "method": "Amyloid reactions were conducted in buffer containing liposome (630 μM lipid) and 20 μM ThT in a black 96-well plate. This was followed by addition of small molecule dissolved in DMSO (final DMSO concentration=0.5%, v/v). Fibre formation was initiated by addition of IAPP stock solution. The final volume in each well was 200 μL. Kinetics of fibrillation was monitored by ThT fluorescence (Ex 450 nm and Em 485 nm) using a FluoDia T70 fluorescence plate reader (Photon Technology International, Edison, NJ, USA). The data were blank subtracted and renormalized to the maximum intensity of reactions containing only IAPP. Each kinetic trace was fit to a sigmoidal form:\n[formula] where I is the fluorescence intensity, t is time, and b, m, and r are dependent fitting variables. All samples were run at least in triplicate and error bars shown in the text represent ±one standard deviation. Transmission Electron Microscopy"}, "INS-1 cells": {"test_system": "INS-1 cells", "experiment": "Cell viability (Cell-Titer Blue), IAPP induced toxicity and rescue", "format": "cell-based, rat", "details": "13 μM IAPP; for rescue of IAPP induced toxicity, co-addition: 1:1 IAPP:ligand co-added, 48 h", "method": "Rat insulinoma INS-1 cells (832/13, Dr. Gary W. Cline, Department of Internal Medicine, Yale University) were cultured at 37° C. and 5% CO2 in phenol red free RPMI 1640 media supplemented with 10% fetal bovine serum, 1% penicillin/streptomycin (Life Technologies, Carlsbad, CA, USA), and 2% INS-1 stock solution (500 mM HEPES, 100 mM L-glutamine, 100 mM sodium pyruvate, and 2.5 mM β-mercaptoethanol). Cells were passaged upon reaching ˜95% confluence (0.25% Trypsin-EDTA, Life Technologies), propagated, and/or used in experiments. Cells used in experiments were pelleted and resuspended in fresh media with no Trypsin-EDTA.\nCell viability was measured colourimetrically using the Cell-Titer Blue (CTB, Promega, Madison, WI, USA) fluorescence-based assay. Cells were plated at a density 5000 cells/well in 96-well plates (BD Biosciences, San Diego, CA). Peptide was directly introduced to each well after 48 h of culture and then further incubated for an additional 48 h. For time dependent experiments, cells were incubated with peptide for the specified time points. After the incubation period, 20 μL CTB reagent was added to each well and incubated at 37° C. and 5% CO2 for 2.5-3.5 h. Fluorescence of the resorufin product was measured on a FluoDia T70 fluorescence plate reader (Photon Technology International, Birmingham, NJ, USA). All wells included the same amount of water to account for different concentrations of peptide added to sample wells. Wells that included water vehicle but not peptide served as the negative control (0% toxic), and wells containing 10% DMSO were the positive control (100% toxic). Percent toxicity was calculated using the following equation: […]\nEach independent variable is the average of eight plate replicates from the negative control (<N>), positive control (<P>), and samples (<S>). Results presented for viability experiments are an average of three such experiments conducted independently on different days. Error bars represent the standard error of the mean."}, "[1]": {"test_system": "Src and its homologue, Abl", "details": "background statement; cited from earlier work"}},
  "note": "Where no end group is shown, it is not given here.",
  "data": [
    {"molecule": "COC(=O)c1cc(OCC(=O)O)c2cccc(NC(=O)c3cc(OCC(=O)O)c4cccc(NC(=O)c5cc(OCC(=O)O)c6cccc(NC(=O)c7cc(OCC(=O)O)c8cccc(NC(=O)c9cc(OCC(=O)O)c%10cccc([N+](=O)[O-])c%10n9)c8n7)c6n5)c4n3)c2c1", "note": "[ADM-118]", "values": [
      {"measurement": "inhibition of liposome catalysed fibrillation, t50 relative to control", "setting": "IAPP", "value": "3.3±0.1", "unit": "fold"}
    ]},
    {"molecule": "IAPP20-29: 10-residue sub-peptide of IAPP, residues 20-29 (SNNFGAILSS; Islet amyloid polypeptide; UniProt P10997 53-62, looked up, fragment)", "values": [
      {"measurement": "t50 of amyloid formation", "setting": "IAPP20-29", "value": "6.6 ± 0.3", "unit": "h"}
    ]},
    {"molecule": "Oc1ccc(C=Cc2cc(O)cc(O)c2)cc1", "note": "[resveratrol]", "values": [
      {"measurement": "effect on liposome catalysed fibrillation", "setting": "IAPP", "value": "no detectable effect"},
      {"measurement": "rescue of IAPP induced toxicity, co-addition", "setting": "INS-1 cells", "value": "ineffective in rescuing toxicity"}
    ]},
    {"molecule": "O=C(O[C@@H]1Cc2c(O)cc(O)cc2O[C@@H]1c1cc(O)c(O)c(O)c1)c1cc(O)c(O)c(O)c1", "note": "[EGCG]", "values": [
      {"measurement": "effect on liposome catalysed fibrillation", "setting": "IAPP", "value": "no detectable effect"},
      {"measurement": "rescue of IAPP induced toxicity, co-addition", "setting": "INS-1 cells", "value": "ineffective in rescuing toxicity"}
    ]},
    {"molecule": "IAPP: 37-residue, C-terminally amidated human islet amyloid polypeptide (SEQ ID NO:1) (KCNTATCATQRLANFLVHSSNNFGAILSSTNVGSNTY-NH2; cysteine pairing not given here)", "values": [
      {"measurement": "decrease of INS-1 viability", "setting": "INS-1 cells; 48 h incubation", "value": "78±8", "unit": "%"}
    ]},
    {"molecule": "Cc1ccc(NC(=O)c2ccc(CN3CCN(C)CC3)cc2)cc1Nc1nccc(-c2cccnc2)n1", "note": "[Gleevec]", "values": [
      {"measurement": "difference in binding affinity between Src and Abl", "setting": "[1]", "value": "> 1,000 fold"}
    ]},
    {"molecule": "acid fuchsin", "values": [
      {"measurement": "effect on liposome catalysed fibrillation", "setting": "IAPP", "value": "no detectable effect"},
      {"measurement": "rescue of IAPP induced toxicity, co-addition", "setting": "INS-1 cells", "value": "ineffective in rescuing toxicity"}
    ]}
  ]
}
